Results from patent publication US9156877B2, “17-hydroxy-17-pentafluorethyl-estra-4,9(10)-dien-11-benzylidene derivatives, methods for the production thereof and use thereof for treating diseases” (Bayer Intellectual Property GmbH, priority 2009, dated 2015).
Converted amounts (≈) assume the structure as drawn.

How the values were obtained:
[1] = Metabolic stability in human liver microsomes; type: in vitro ADME; details: for Predicted clearance [l/h/kg] Human: 1 μM, well-stirred model
Procedure: (§1) Determination of Metabolic Stability in Human and Rat Liver Microsomes
Isolated human liver microsomes (HLM) were used to assess the metabolic stability of compounds of general formula I.
(§2) The incubations were conducted with 2.4 ml of HLM solution (protein content 0.5 mg/ml), 30 μl of the test compound (final concentration 1 μM) and 0.6 ml of the cofactor mixture (═NADPH-generating system composed of 3 IU glucose-6-phosphate dehydrogenase, 14.6 mg glucose-6-phosphate, 1.2 mg NADP) at 37° C. in 100 mM phosphate buffer at pH 7.4. Samples were taken at 6 time points (2-60 min) and precipitated with an equal volume of methanol, and the recovery of the test substances used in the supernatant was determined by LC-MS/MS analysis. The half-life of substance degradation determined therefrom was used to calculate what is called the intrinsic clearance of the substance in the liver microsome preparation. […] In addition, under the assumptions that (i) absorption of the test substance is 100%, and (ii) the first pass is completely reflected by liver microsome metabolism, a maximum oral bioavailability (Fmax) was calculated.

[2] = Metabolic stability in rat liver microsomes; type: in vitro ADME; details: for Predicted clearance [l/h/kg] Rat: well-stirred model
Procedure: as §1, §2

[3] = biological target: T1, human progesterone receptor B (Homo sapiens, UniProt P06401); assay: Progesterone receptor-antagonistic action in stably transfected SK-N-MC cells with MMTV-LUC reporter (PR-B); type: cell-based; details: antagonistic potency against 0.1 nmol/l promegestone, 24 hours, luciferase
T1 construct: expressed in transfected cells; host or cells: SK-N-MC human neuroblastoma cells, stably transfected with pRChPR-B-neo and pMMTV-LUC
T1 sequence (P06401 1-933): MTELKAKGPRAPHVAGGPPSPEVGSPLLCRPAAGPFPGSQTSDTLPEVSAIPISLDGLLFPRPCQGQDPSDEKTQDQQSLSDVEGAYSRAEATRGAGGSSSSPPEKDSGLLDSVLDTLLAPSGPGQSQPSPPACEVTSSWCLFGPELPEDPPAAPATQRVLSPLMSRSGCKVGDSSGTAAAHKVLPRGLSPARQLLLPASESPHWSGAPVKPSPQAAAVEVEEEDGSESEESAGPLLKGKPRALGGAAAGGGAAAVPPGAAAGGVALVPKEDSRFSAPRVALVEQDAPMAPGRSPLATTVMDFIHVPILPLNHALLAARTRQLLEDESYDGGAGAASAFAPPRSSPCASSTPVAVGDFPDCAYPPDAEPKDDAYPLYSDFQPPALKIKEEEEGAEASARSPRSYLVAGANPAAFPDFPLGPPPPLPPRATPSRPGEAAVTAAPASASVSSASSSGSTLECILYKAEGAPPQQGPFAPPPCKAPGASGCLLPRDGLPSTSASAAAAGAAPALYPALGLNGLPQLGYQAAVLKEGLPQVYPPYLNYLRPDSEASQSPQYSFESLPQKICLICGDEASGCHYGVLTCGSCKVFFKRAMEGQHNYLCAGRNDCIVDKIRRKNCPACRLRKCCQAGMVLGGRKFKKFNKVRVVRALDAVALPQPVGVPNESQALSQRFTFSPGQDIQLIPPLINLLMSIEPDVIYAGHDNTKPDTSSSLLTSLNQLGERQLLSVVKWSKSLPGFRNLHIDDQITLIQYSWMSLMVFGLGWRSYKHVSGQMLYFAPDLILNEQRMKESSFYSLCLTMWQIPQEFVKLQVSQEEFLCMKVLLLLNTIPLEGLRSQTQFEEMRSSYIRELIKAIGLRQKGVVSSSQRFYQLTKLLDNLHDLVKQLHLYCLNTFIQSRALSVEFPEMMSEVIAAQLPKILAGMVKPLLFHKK
In short: (§3)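 SK-N-MC neuroblastoma cells stably expressing human PR-A or PR-B plus MMTV-LUC reporter, treated 24 h with test compound (0.01 nmol/l–[…]). Antagonist mode used co-treatment with 0.1 nmol/l promegestone; luciferase in lysates read as RLU, expressed as % efficacy and IC50/EC50.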

[4] = Solubility in aqueous medium at pH 7.4; type: physicochemical; details: for solubility: aqueous medium, pH 7.4, aqueous buffer
Text: In addition, some compounds have an unusually good solubility, for this active ingredient class, in aqueous medium under physiological conditions (Table 2).

[5] = biological target: T2, human progesterone receptor A (Homo sapiens, UniProt P06401); assay: Progesterone receptor-antagonistic action in stably transfected SK-N-MC cells with MMTV-LUC reporter (PR-A); type: cell-based; details: antagonistic potency against 0.1 nmol/l promegestone, 24 hours, luciferase
T2 construct: expressed in transfected cells; host or cells: SK-N-MC human neuroblastoma cells, stably transfected with pRChPR-A-neo and pMMTV-LUC
T2 sequence (P06401 1-769 isoform P06401-2): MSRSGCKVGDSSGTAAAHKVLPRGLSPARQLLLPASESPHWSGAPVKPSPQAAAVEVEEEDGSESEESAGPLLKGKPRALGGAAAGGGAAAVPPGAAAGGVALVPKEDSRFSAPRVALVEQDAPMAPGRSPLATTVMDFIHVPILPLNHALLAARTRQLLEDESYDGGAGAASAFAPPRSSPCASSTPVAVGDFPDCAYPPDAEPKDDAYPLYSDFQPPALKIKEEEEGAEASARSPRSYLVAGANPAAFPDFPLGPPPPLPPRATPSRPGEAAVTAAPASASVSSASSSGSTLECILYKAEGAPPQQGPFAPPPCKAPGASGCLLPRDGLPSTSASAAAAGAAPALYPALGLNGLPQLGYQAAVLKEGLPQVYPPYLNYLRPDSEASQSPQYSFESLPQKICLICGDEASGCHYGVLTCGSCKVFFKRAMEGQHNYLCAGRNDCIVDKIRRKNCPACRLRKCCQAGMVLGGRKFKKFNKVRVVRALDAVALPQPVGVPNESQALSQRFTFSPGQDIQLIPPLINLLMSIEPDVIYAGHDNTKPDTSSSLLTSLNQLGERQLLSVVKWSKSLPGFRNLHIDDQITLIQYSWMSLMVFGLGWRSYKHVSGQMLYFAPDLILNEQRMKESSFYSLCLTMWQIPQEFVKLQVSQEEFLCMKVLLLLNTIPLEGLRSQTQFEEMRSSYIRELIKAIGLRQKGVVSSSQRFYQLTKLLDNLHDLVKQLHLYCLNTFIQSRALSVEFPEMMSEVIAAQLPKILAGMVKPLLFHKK
In short: as §3

Structure (SMILES)	Predicted clearance [l/h/kg] Human [1]	Predicted clearance [l/h/kg] Rat [2]	IC50 [3]	solubility [4]	IC50 [5]	Predicted Fmax [%] (maximum oral bioavailability) Human [1]	Predicted Fmax [%] (maximum oral bioavailability) Rat [2]	solubility (in words) ([4]; aqueous medium under physiological conditions)
C=Cc1ccc([C@H]2C[C@@]3(C)[C@@H](CC[C@@]3(O)C(F)(F)C(F)(F)F)[C@@H]3CCC4=CC(=O)CCC4=C32)cc1 [Example 1, (8S,11R,13S,14S,17S)-17-hydroxy-13-methyl-17-pentafluoroethyl-11-(4-vinylphenyl)-1,2,6,7,8,11,12,13,14,15,16,17-dodecahydrocyclopenta[a]phenanthren-3-one]	0.90 L/h/kg	1.9 L/h/kg	0.012 nM	6 µg/mL (≈ 12.2 µM)				
C[C@]12C[C@H](c3ccc(/C=C/CC(C(=O)O)C(=O)O)cc3)C3=C4CCC(=O)C=C4CC[C@H]3[C@@H]1CC[C@@]2(O)C(F)(F)C(F)(F)F [Example 5, 2-{(E)-3-[4-((8S,11R,13S,14S,17S)-17-hydroxy-13-methyl-3-oxo-17-pentafluoroethyl-2,3,6,7,8,11,12,13,14,15,16,17-dodecahydro-1H-cyclopenta[a]phenanthren-11-yl)phenyl]allyl}malonic acid]	0.00 L/h/kg	0.5 L/h/kg	0.13 nM	203 µg/mL (≈ 334 µM)	0.4 nM	100%	88%	improved
C[C@]12C[C@H](c3ccc(/C=C/c4ccccn4)cc3)C3=C4CCC(=O)C=C4CC[C@H]3[C@@H]1CC[C@@]2(O)C(F)(F)C(F)(F)F [Example 6, (8S,11R,13S,14S,17S)-17-hydroxy-13-methyl-17-pentafluoroethyl-11-[4-((E)-2-pyridin-2-ylvinyl)phenyl]-1,2,6,7,8,11,12,13,14,15,16,17-dodecahydrocyclopenta[a]phenanthren-3-one]	0.21 L/h/kg	0.7 L/h/kg	0.12 nM	9 µg/mL (≈ 15.8 µM)	0.16 nM	84%	83%	
C=CC=Cc1ccc([C@H]2C[C@@]3(C)C(CC[C@@]3(O)C(F)(F)C(F)(F)F)C3CCC4=CC(=O)CCC4=C32)cc1 (mixture of isomers) [Example 18, (8S,11R,13S,14S,17S)-11-[((E/Z)-4-buta-1,3-dienyl)phenyl]-17-hydroxy-13-methyl-17-pentafluoroethyl-1,2,6,7,8,11,12,13,14,15,16,17-dodecahydrocyclopenta[a]phenanthren-3-one]	0.84 L/h/kg	1.8 L/h/kg	0.02 nM	6 µg/mL	0.01 nM	36%	57%	
Cc1nc2cc(/C=C/c3ccc([C@H]4C[C@@]5(C)[C@@H](CC[C@@]5(O)C(F)(F)C(F)(F)F)[C@@H]5CCC6=CC(=O)CCC6=C54)cc3)ccc2s1 [Example 10, (8S,11R,13S,14S,17S)-17-hydroxy-13-methyl-11-{4-[(E)-2-(2-methylbenzothiazol-5-yl)vinyl]phenyl}-17-pentafluoroethyl-1,2,6,7,8,11,12,13,14,15,16,17-dodecahydrocyclopenta[a]phenanthren-3-one]	0.36 L/h/kg	1.0 L/h/kg	0.86 nM	8 µg/mL (≈ 12.5 µM)	0.2 nM	73%	76%	
C[C@]12C[C@H](c3ccc(CO)cc3)C3=C4CCC(=O)C=C4CC[C@H]3[C@@H]1CC[C@@]2(O)C(F)(F)C(F)(F)F [Ref. 1, (8S,11R,13S,14S,17S)-17-hydroxy-11-[4-(hydroxymethyl)phenyl]-13-methyl-17-pentafluoroethyl-1,2,6,7,8,11,12,13,14,15,16,17-dodecahydrocyclopenta[a]phenanthren-3-one, reference compound]	0.7 L/h/kg	0.8 L/h/kg	0.8 nM		0.7 nM			
CCOC(=O)CNC(=O)NC/C=C/c1ccc([C@H]2C[C@@]3(C)C(CC[C@@]3(O)C(F)(F)C(F)(F)F)C3CCC4=CC(=O)CCC4=C32)cc1 (stereo partly drawn) [Example 51, 3-(3-{(E)-3-[4-((8S,11R,13S,14S,17S)-17-hydroxy-13-methyl-3-oxo-17-pentafluoroethyl-2,3,6,7,8,11,12,13,14,15,16,17-dodecahydro-1H-cyclopenta[a]phenanthren-11-yl)phenyl]allyl}ureido)acetic acid ethyl ester]			0.1 nM		0.1 nM			
Cc1nc(/C=C/c2cccc([C@H]3C[C@@]4(C)[C@@H](CC[C@@]4(O)C(F)(F)C(F)(F)F)[C@@H]4CCC5=CC(=O)CCC5=C43)c2)cs1 [Example 24, (8S,11R,13S,14S,17S)-17-hydroxy-13-methyl-11-{3-[(E)-2-(2-methylthiazol-4-yl)vinyl]phenyl}-17-pentafluoroethyl-1,2,6,7,8,11,12,13,14,15,16,17-dodecahydrocyclopenta[a]phenanthren-3-one]			1 nM		1 nM			
